Measurements published in patent US10584115B2, “Substituted pyridine and pyrazine BMI-1 inhibitors” (PTC Therapeutics, Inc., priority 2013, dated 2020).

Key:
Bmi-1 protein = assay: Sandwich ELISA Assay (Bmi-1 protein level in HT-1080 cells after compound treatment); assay type: cell-based; settings: Table 1, Bmi-1 sandwich ELISA, read-out: ELISA EC50 value for Bmi-1 protein
Outline: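 Sandwich ELISA quantified Bmi-1 protein against recombinant standard (125–8000 pg/mL), with lysates captured overnight at 4 °C and signal by HRP/TMB at 450 nm (570 nm reference). Lysates came from HT-1080 cells incubated 40–48 h with test compounds in 0.5% DMSO.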

| SMILES | melting point [°C] | EC50 (Bmi-1 protein) [nM] |
| --- | --- | --- |
| Cc1nc2ccc(F)cn2c1-c1cncc(Nc2cccc(F)c2)n1 [compound 595, 6-(6-fluoro-2-methylimidazo[1,2-a]pyridin-3-yl)-N-(3-fluorophenyl)pyrazin-2-amine] | 270 to 273 | 10 to 100 |
| COc1cccc(Nc2cncc(-c3c(C)nc4ccc(F)cn34)n2)c1 [compound 596, 6-(6-fluoro-2-methylimidazo[1,2-a]pyridin-3-yl)-N-(3-methoxyphenyl)pyrazin-2-amine] | 270 to 273 | 1 to 10 |
| Cc1nc2ccc(F)cn2c1-c1cncc(Nc2cccc(Cl)c2)n1 [compound 597, N-(3-chlorophenyl)-6-(6-fluoro-2-methylimidazo[1,2-a]pyridin-3-yl)pyrazin-2-amine] | 272 to 275 | 10 to 100 |
| Cc1nc2ccc(F)cn2c1-c1cncc(Nc2ccccc2F)n1 [compound 598, 6-(6-fluoro-2-methylimidazo[1,2-a]pyridin-3-yl)-N-(2-fluorophenyl)pyrazin-2-amine] | 218 to 220 | 100 to 3000 |
| CCc1nc2ccc(F)cc2n1-c1cncc(Nc2ccc(OC)cc2)n1 [compound 621, 6-(2-ethyl-6-fluoro-1H-benzimidazol-1-yl)-N-(4-methoxyphenyl)pyrazin-2-amine] | 218 to 220 | < 1 |
| CCc1nc2ccc(F)cc2n1-c1cncc(Nc2ccc(C)cc2)n1 [compound 622, 6-(2-ethyl-6-fluoro-1H-benzimidazol-1-yl)-N-(4-methylphenyl)pyrazin-2-amine] | 223 to 226 | 1 to 10 |
| CCc1nc2ccc(F)cc2n1-c1cncc(Nc2ccc(Cl)cc2)n1 [compound 623, N-(4-chlorophenyl)-6-(2-ethyl-6-fluoro-1H-benzimidazol-1-yl)pyrazin-2-amine] | 252 to 255 | 1 to 10 |
| CCc1nc2ccc(F)cc2n1-c1cncc(Nc2cccc(OC)c2)n1 [compound 624, 6-(2-ethyl-6-fluoro-1H-benzimidazol-1-yl)-N-(3-methoxyphenyl)pyrazin-2-amine] | 179 to 181 | 10 to 100 |
| CCc1nc2ccc(F)cc2n1-c1cncc(Nc2cccc(Cl)c2)n1 [compound 625, N-(3-chlorophenyl)-6-(2-ethyl-6-fluoro-1H-benzimidazol-1-yl)pyrazin-2-amine] | 192 to 195 | 100 to 3000 |
| CCc1nc2ccc(F)cc2n1-c1cncc(Nc2cccc(F)c2)n1 [compound 626, 6-(2-ethyl-6-fluoro-1H-benzimidazol-1-yl)-N-(3-fluorophenyl)pyrazin-2-amine] | 228 to 230 | 100 to 3000 |
| Cc1ccc(Nc2cncc(-c3c(C)noc3C)n2)cc1 [compound 635, 6-(3,5-dimethyl-1,2-oxazol-4-yl)-N-(4-methylphenyl)pyrazin-2-amine] | 186 to 188 | 1 to 10 |
| COc1ccc(Nc2cncc(-c3c(C)noc3C)n2)cc1 [compound 636, 6-(3,5-dimethyl-1,2-oxazol-4-yl)-N-(4-methoxyphenyl)pyrazin-2-amine] | 154 to 155 | 10 to 100 |
| COc1ccc(Nc2cncc(-c3c(C)noc3C)n2)cc1F [compound 637, 6-(3,5-dimethyl-1,2-oxazol-4-yl)-N-(3-fluoro-4-methoxyphenyl)pyrazin-2-amine] | 158 to 159 | 10 to 100 |
| COc1ccc(Nc2cncc(-c3c(C)noc3C)n2)cn1 [compound 638, 6-(3,5-dimethyl-1,2-oxazol-4-yl)-N-(6-methoxypyridin-3-yl)pyrazin-2-amine] | 173 to 174 | 100 to 3000 |
| Cc1noc(C)c1-c1cncc(Nc2ccc3c(c2)OCO3)n1 [compound 639, N-(1,3-benzodioxol-5-yl)-6-(3,5-dimethyl-1,2-oxazol-4-yl)pyrazin-2-amine] | 185 to 186 | 100 to 3000 |
| Cc1nc2ccc(F)cn2c1-c1cc(C#N)cc(Nc2ccccc2)n1 [compound 646, 2-(6-fluoro-2-methylimidazo[1,2-a]pyridin-3-yl)-6-(phenylamino)pyridine-4-carbonitrile] | 176 to 178 | 100 to 3000 |
| Cc1nc2ccc(F)cn2c1-c1cc(C#N)cc(Nc2ccc(Cl)cc2)n1 [compound 647, 2-[(4-chlorophenyl)amino]-6-(6-fluoro-2-methylimidazo[1,2-a]pyridin-3-yl)pyridine-4-carbonitrile] | 148 to 151 | 10 to 100 |
| Cc1ccc(Nc2cc(C#N)cc(-c3c(C)nc4ccc(F)cn34)n2)cc1 [compound 648, 2-(6-fluoro-2-methylimidazo[1,2-a]pyridin-3-yl)-6-[(4-methylphenyl)amino}pyridine-4-carbonitrile] | 185 to 188 | 1 to 10 |
| COc1ccc(Nc2cc(C#N)cc(-c3c(C)nc4ccc(F)cn34)n2)cc1 [compound 649, 2-(6-fluoro-2-methylimidazo[1,2-a]pyridin-3-yl)-6-[(4-methoxyphenyl)amino}pyridine-4-carbonitrile] | 190 to 192 | 1 to 10 |
| COc1cccc(Nc2cc(C#N)cc(-c3c(C)nc4ccc(F)cn34)n2)c1 [compound 650, 2-(6-fluoro-2-methylimidazo[1,2-a]pyridin-3-yl)-6-[(3-methoxyphenyl)amino}pyridine-4-carbonitrile] | 247 to 250 | 100 to 3000 |
